# In the pKa sets of Baltruschat and Czodrowski (2020):
row,Compound,pKa
1,O=c1[nH]c2cc(C(F)(F)F)ccc2n1Cc1cc(Cl)ccc1O,9.75
2,COc1ccc2[nH]cc(CN3CCCC4(CCN(c5nc(C)cc(C)n5)CC4)C3=O)c2c1,4.65
3,Cn1cc(C(=O)[O-])c(=O)c2ccccc21,6.5
4,Cc1cc(C(=O)C[NH+]2CCCC2)c(C)n1-c1ccc(F)cc1,9
5,CC(c1cc2ccccc2s1)N(O)C(N)=O (stereo unspecified),10.2
6,O=C([O-])CSc1ncnc2cc(-c3ccc(Br)cc3)sc12,3.5
7,Cc1cc(C)nc(N2CCC3(CCCC(=O)N3Cc3cccc4[nH]ccc34)CC2)n1,4.4
8,Nc1ncnc2ccc(-c3cccc(F)c3)nc12,4.7
9,CC(NC(=O)c1ccccc1/N=C/c1c(O)ccc2ccccc12)c1ccccc1 (stereo unspecified),6.9
10,Nc1nccc(N2CCc3ccc(Br)cc32)n1,6.9
11,COc1ccc2c(c1)CN(C(=O)CC[NH+]1CCC(Cc3ccccc3)CC1)CCS2,8.3
12,Cc1ccc(C)c(CN2C(=O)CCCC23CCN(c2cnc4ccccc4n2)CC3)c1,3.4
13,C1=C(c2cccc3ccccc23)N2CC[NH+]=C2c2ccccc21,10.3
14,Nc1nc(-c2ccccn2)nc(N)c1Cc1ccc(Cl)cc1Cl,5.6
15,O=C([O-])c1ccccc1Nc1cc(C(F)(F)F)cc(C(F)(F)F)c1,3.9
16,O=C([O-])c1ccccc1Nc1cc(F)cc(C(F)(F)F)c1,3.9
17,Fc1ccc2c(/C=C/c3cccnc3)c[nH]c2c1,5.3
18,CC(C)Oc1ccc(Cc2ccc(NC3=[NH+]CCN3)cc2)cc1,10.5
19,COc1ccc(Nc2ccc3ccccc3n2)cc1,6.5
20,O=C1N(Cc2cccc3[nH]ccc23)CCCC12CCN(c1cnc3ccccc3n1)CC2,3.75
21,O=C([O-])c1ccc(-c2nn(C(=O)c3c(Cl)cccc3Cl)c3ccccc23)cc1,3.2
22,CC(=O)Nc1ccc(Nc2ncnc3c2c(-c2ccccc2)cn3-c2ccccc2)cc1,3.9

# Remark: another data set of the same source
row,Compound,pKa
1,Fc1ccc([C@H]2CC[NH2+]C[C@@H]2COc2ccc3c(c2)OCO3)cc1,9.5
2,CS(=O)(=O)Nn1c(=O)[nH]c2cc(C(F)(F)F)ccc2c1=O,8.35
3,CC[C@H](C(=O)NO)[C@H](C(=O)N1CCCC[C@H]1C(=O)NC)c1ccc(Cl)cc1,9.2
4,C[NH+](CCC(=O)N1CCN(c2ccc(F)c(F)c2)CC1)CCC1c2ccccc2-c2ccccc21,7.8
5,Cc1cc(C)nc(N2CCC3(CCCN(Cc4c[nH]c5ccccc45)C3=O)CC2)n1,4.94
6,CNC(=O)c1c(NCC2CCC3(CCC3)CC2)nc(C#N)nc1OCC1CC[NH+](C)CC1,10.7
7,O=c1[nH]c2c(Cc3nn[n-]n3)c3ccccc3n2c2ccccc12,4.42
8,CS(=O)(=O)Nn1c(=O)[nH]c2cc(C(F)(F)F)c(N3CCCOCC3)cc2c1=O,8.4
9,CC(=O)N1CCC(CNc2nc3c(s2)CCCc2ccc(F)cc2-3)CC1,4.31
10,CCOC(=O)c1c(C)cc2nc(COC(=O)NCCO)n(-c3ccccc3S(=O)(=O)NC)c(=O)c2c1C,10.6
11,O=NC(=O)CCc1ccc(C[NH+]2CCC(c3c[nH]c4ccccc34)CC2)cc1,8.55
12,COc1cc(C(C)O)ccc1OCCC[NH+]1CCC(c2noc3cc(F)ccc23)CC1 (stereo unspecified),8.25
13,COc1cc(C(C)=O)ccc1OCCC[NH+]1CCC(c2noc3cc(F)ccc23)CC1,8.2
14,Cc1ncc(-c2ccc(C(F)(F)F)cc2)c(NC2C3CC4CC(C3)CC2C4)n1 (stereo unspecified),6
15,C/C(=C\c1cccc(C)n1)[C@@H]1C[C@@H]2O[C@]2(C)CCC[C@H](C)[C@H](O)[C@@H](C)C(=O)C(C)(C)[C@@H](O)CC(=O)O1,5.5
16,CNC(=O)c1ccccc1Nc1nc(Nc2ccc(N3CCOCC3)cc2OC)ncc1Cl,4.27
17,CCCCCCCCc1ccc(CCC([NH3+])(CO)CO)cc1,8.52
18,C[NH+](CCC(=O)N1CCN(c2ccc(F)c(F)c2)CC1)CCC1c2ccccc2Oc2ccccc21,7.9
19,NC1=[NH+]c2ccccc2CC1,9.55
20,CCN(Cc1ccccc1)c1ccccc1,5.8
21,CC(C)n1c(/C=C/[C@H](O)C[C@H](O)CC(=O)[O-])c(-c2ccc(F)cc2)c2ccccc21,4.5

row,Compound,pKa
1,O=S(=O)(c1ccccc1)N(CC(F)(F)F)c1ccc(C(O)(C(F)(F)F)C(F)(F)F)cc1,8.2
2,Cc1nc[n+]([O-])c(C)c1C(=O)N1CCC(C)([NH+]2CCC(N(c3ccccc3)c3ccccc3)CC2)CC1,8.5
3,COc1cc(CN(CC(=O)NCc2ccccc2Cl)S(=O)(=O)c2ccc(CN3CC[NH+](C)CC3)cc2)ccc1OCC(C)C,7.17
4,Cc1ccc(Nc2ncc(C(=O)N3CCCCC3)cc2Cl)cn1,5.2
5,Cn1c(-c2ccc(C[NH+](C)C)cc2)cc2onc(-c3ccccc3)c2c1=O,8.38
6,COc1ccc(C#CC(C)(C)[NH3+])cc1C(=O)c1ccc(Nc2ccc(F)cc2F)cc1,8.1
7,Fc1ccc2c(/C=C/c3nn[n-]n3)c[nH]c2c1,4.94
8,C=CCNc1ccc2c(c1)c(-c1ccc(C(C)C)cc1)nc(=O)n2C(C)C,2.9
9,CC/C(=C(\c1ccccc1)c1ccc(/C=C/C(=O)[O-])cc1)c1ccccc1,4.26
10,Cc1cc(N2CCCC2)cc(/C=C/c2cccc(C(F)(F)F)c2)[nH+]1,9.43
11,Cc1nc2cccc(C(F)(F)F)c2c(=O)n1-c1ccc(OC2CC[NH+](C3CCC3)CC2)cc1,9
12,COc1cccc(OC)c1-c1ccc(C[C@H](NC(=O)c2c(Cl)cccc2Cl)C(=O)[O-])cc1,3.41
13,CC(C)(C)Cn1c(CN2C(=O)CC3(CC[NH2+]CC3)C2=O)cc2cnc(C#N)nc21,9.2
14,Cc1c(-c2ccccc2)c(=O)oc2cc(O)ccc12,7.74
15,CC(C)[NH+](CCc1c[nH]c2ccccc12)Cc1ccc(CCC(=O)N=O)cc1,8.66
16,Cc1ncccc1Oc1ncnc(OC2CCN(C(=O)OC(C)C)CC2)c1C,4.18
17,OCCn1cc(-c2cnc3nnn(Cc4ccc5ncccc5c4)c3n2)cn1,4.6
18,CN1C(=O)N(C[C@H](C(=O)NO)[C@@H](CC2CCCC2)C(=O)N2CCCCC2)C(=O)C1(C)C,9.01
19,[NH3+]C(CO)c1ccccc1 (stereo unspecified),8.4
20,COc1ccc(CNC(=O)[C@@H](NC(=O)[C@H](Cc2ccc(OC)c(OC)c2)NC(=O)Cc2cccc(Oc3ccccc3)c2)C(C)C)c(O)c1,10.9
21,O=C(Nc1cccc2cnccc12)c1ccc(-c2ccccc2)cc1,4.1

row,Compound,pKa
1,O=C1CN=C(c2ccccc2)c2cc3ccccc3cc2N1,3.8
2,COc1ccc(OC)c(CNc2ccc3nc(N)nc(N)c3c2Cl)c1,7.1
3,CN1c2ccc(C#N)cc2N=C(c2ccc(C(=O)[O-])c(F)c2)c2cc3c(cc21)C(C)(C)CCC3(C)C,3.4
4,Cc1ncc(-c2ccc(C(F)(F)F)cc2)c(NC2CCCCCC2)n1,6
5,CN(CCO)c1cc2c(=O)n(NS(C)(=O)=O)c(=O)[nH]c2cc1C(F)(F)F,8.3
6,CCOc1ccc2nc(S(N)(=O)=O)sc2c1,8.36
7,Cc1[nH]c2ccccc2c1CC[NH+]1CCc2cc(CCC(=O)N=O)ccc2C1,7.96
8,CC(=C(C#N)C#N)c1ccc2cc(N(C)CCF)ccc2c1,2.4
9,Cc1ccc2c(=O)c3cccc(CC(=O)[O-])c3oc2c1C,3.8
10,Cc1ccc(-c2ccc3c(c2)C=C(C(=O)Nc2ccc(C[NH+](C)C4CCOCC4)cc2)CCC3)cc1,8.3
11,CN1c2ccc(C#N)cc2N=C(c2ccc(C(=O)[O-])cc2)c2cc3c(cc21)C(C)(C)CCC3(C)C,3.5
12,NS(=O)(=O)Oc1ccc2nc(C=C3C4CC5CC(C4)CC3C5)oc2c1,8.26
13,CCCCC(=O)N1CCC(CNc2nc3c(s2)CCOc2ccc(F)cc2-3)CC1,3.69
14,O=c1[nH]c(-c2ccc(C(F)(F)F)cc2)nc2c1CSCC2,7.94
15,CNc1nc2ccccc2n(C)c1=O,4.25
16,Cn1c(=O)n(NS(C)(=O)=O)c(=O)c2ccc(Cl)cc21,6.8
17,COc1ccc(SCCc2ccncc2)cc1,5.6
18,CCC1CCCCN1C(=O)c1cnc(Nc2ccc(C)nc2)c(Cl)c1 (stereo unspecified),5.3
19,CNC(=O)c1c(NCC2CCC3(CCC3)CC2)nc(C#N)nc1OCCC1CC[NH+](C)CC1,10.2
20,O=C([O-])c1ccc(-c2ccccc2)cc1,3.9
21,N#Cc1ncc2cc(COc3cccc(CCC(=O)[O-])c3)n(CCC3CCCCC3)c2n1,4.5

row,Compound,pKa
1,Cc1ccc(-c2ncc(Cl)cc2-c2ccc(S(C)(=O)=O)cc2)cn1,4.63
2,CC(C)(C)c1ccc(S(=O)(=O)Nc2ccc(Cl)cc2C(=O)c2cc[n+]([O-])cc2)cc1,6.87
3,COc1ccc(OC)c(S(=O)(=O)N2CCC(CN3CC[NH+](Cc4ccc(F)cc4)CC3)CC2)c1,7.32
4,CNC(=O)c1c(NCC2CCC3(CCC3)CC2)nc(C#N)nc1OC1CC(C)(C)[NH2+]C(C)(C)C1,9.2
5,CS(=O)(=O)Nn1c(=O)[nH]c2cc(C(F)(F)F)c(N)cc2c1=O,8.6
6,Cc1ccc(Nc2c(F)cccc2Cl)c(CC(=O)[O-])c1,4.2
7,Cc1nc(-n2ccc([O-])cc2=O)sc1C(=O)NCc1ccccc1,5.2
8,Cc1nc(N2CCN(Cc3ccccc3)C2=O)sc1C(=O)NCc1ccccn1,4.28
9,C/C(=C\c1cc(C)ccn1)[C@@H]1C[C@@H]2O[C@]2(C)CCC[C@H](C)[C@H](O)[C@@H](C)C(=O)C(C)(C)[C@@H](O)CC(=O)O1,5.5
10,CC(C)N(CCCCOCC(=O)[O-])c1cnc(-c2ccccc2)c(-c2ccccc2)n1,3.38
11,Brc1ccc(C2CN3C=CSC3=[NH+]2)cc1 (stereo unspecified),8.55
12,Cc1ccc(-c2cc(C(F)(F)F)nn2-c2ccc(S(N)(=O)=O)cc2)cc1,9.46
13,CCCCC[C@H](O)CC[C@@H]1[C@H]2Cc3cccc(OCC(=O)[O-])c3C[C@H]2C[C@H]1O,3.37
14,C[C@@H](NC(=O)c1cc(C(=O)N[C@@H](Cc2ccccc2)[C@H](O)C[NH2+]C2CC2)cc(N(C)S(C)(=O)=O)c1)c1ccc(F)cc1,7.7
15,CN(n1c(=O)[nH]c2cc(Cl)ccc2c1=O)S(C)(=O)=O,8.4
16,Cc1cccc(C)c1C(=O)N1CCC(C)([NH+]2CCC(N(c3ccccc3)c3ccccc3)CC2)CC1,8.35
17,O=C1c2ccccc2-[n+]2ccc3c([nH]c4ccccc43)c21,8.7
18,COc1ccc(-c2c(C)nc3c(-c4ccccn4)cnn3c2N)cc1,6.07
19,COc1ccc(-c2ccc(C(=O)Nc3ccc4c(c3)CCC(C[NH+](C)C)C4)cc2)cc1 (stereo unspecified),9.1
20,CC1CCCN(C(=O)c2ccc(Nc3ccc(Cl)cc3)nc2)C1 (stereo unspecified),3.4
21,O=C([O-])COc1ccc(Cl)cc1C1CCCCCC1,3.48
